Experimental data published in patent publication US5122448A, “Assay of anti-Epstein-Barr virus nuclear antigen antibodies with synthetic polypeptides” (Scripps Clinic and Research Foundation, priority 1990, dated 1992).
Residues, ends and D or L forms follow the SMILES beside them.

Experiments:
[1] = test system: anti-EBNA antibodies; assay: ELISA with polypeptide as solid phase antigen, anti-polypeptide activity of sera (OD405); format: binding, human; conditions: for OD405 × 10^3 obtained with Patient Antibodies to peptide: serum 1:20
Method: Briefly, microtiter wells (Costar, #3590, Cambridge, MA) were typically coated with individual polypeptides as antigens by adding 100 microliters (ul) of BBS [10 millimoler (mM) sodium borate (pH 8.3), 150 mM NaCl] containing polypeptide at a concentration of 10 micrograms per milliliter (ug/ml). Contact between the wells and antigen-containing solution was maintained for a predetermined time, typically 15 minutes, and at 20 degrees C., to form an antigen-coated solid phase. The solid and liquid phases were separated and the wells were washed three times with BBS.
Non-specific binding sites were blocked by admixing 200 microliters of 1% bovine serum albumin (BSA) in each well to form another solid/liquid phase admixture, and maintaining that solid/liquid phase admixture for 30 minutes, at 20 degrees C. The phases were separated and excess, unbound BSA was removed by washing three times with BBS.
The antibodies in human sera that immunoreacted with an adsored polypeptide were detected using an indicating means comprising alkaline phosphatase-conjugated goat anti-human Ig antibody (Tago, Burlington, Calif.). The antibodies in rabbit sera that immunoreacted with an adsorbed polypeptide were detected using an indicating means comprising alkaline phosphatase-conjugated goat anti-rabbit Ig antibody (Kirkegard & Perry Laboratories, Inc., Gaithersburg, MD). In either instance, 100 microliters of the indicating antibody diluted 1:300 in BBS were added per well to form a further solid/liquid phase composition. This solid-liquid phase composition was maintained for a predetermined time, one hour, for the formation of a reaction product between the human antibodies bound to the solid phase and the indicating means, and at 20 degrees C. The phases were separated, and the solid phase was washed 3 times with BBS.
Alkaline phosphatase-conjugated antibody bound to polypeptide specific antibody was detected by spectrophotometrically measuring the enzymatic hydrolysis of p-nitrophenyl phosphate to p-nitrophenol. Briefly, 100 microliters of p-nitrophenyl phosphate [1 milligram per milliliter in 2 mM MgCl 2, (pH 9.8), 50 mM sodium carbonate] were added to each well. The enzymatic reaction was allowed to proceed 1 hour and then the optical density at 405 nm was determined in a [sequence] spectrophotometer available from Flow Laboratories, Inglewood, Calif.

[2] = test system: rabbit anti-polypeptide antibody to polypeptide P62; assay: Competition ELISA with rabbit anti-polypeptide P62 antibody on solid phase P62; format: binding; conditions: antibody first incubated with competing polypeptide
Method: Anti-peptide antibody binding and inhibition studies were carried out by an enzyme-linked immunosorbent assay (ELISA) as described below.
Contact between the wells and antigen-containing solution was maintained for a predetermined time, typically 15 minutes, and at 20 degrees C., to form an antigen-coated solid phase. The solid and liquid phases were separated and the wells were washed three times with BBS.
Rabbit and human sera (body sample aliquots) were assayed for anti-polypeptide activity by adding 100 microliters of a serum diluted 1:20 in BBS per well to form a solid/liquid phase composition. Contact between the diluted sera and the antigen-coated solid phase was maintained for a predetermined time such as 1 hour, and at 20 degrees C., for an immunoreactant to form. The solid and liquid phases were separated, and the solid phase; i.e., antigen-coated, immunoreactant-containing wells, was then washed three times with BBS.

[3] = test system: EBNA; assay: Immunoblot of WI-L2 whole cell extracts with rabbit antipeptide antisera, blocking by polypeptide; format: binding, Epstein-Barr virus
Method: Exemplary receptor molecules containing antibody combining sites of this invention raised in rabbits to the polypeptides shown in Table 1 were studied using the immunoblotting procedures of Towbin, et. al., Proc. Natl. Acad. Sci., U.S.A., 76:4350-4354 (1979) and Billings, et. al., Proc. Natl. Acad. Sci., U.S.A., 80:7104-7108 (1983). Further details are provided in the Materials and Methods section (III).
Extracts of EBNA producing and non-producing (control) cells were prepared to determine if receptor molecules of this invention were useful for diagnosing EBNA expression. Cells from cultures described hereinabove were washed in phosphate-buffered saline (PBS; 150 mM NaCl, 10 mM sodium phosphate, pH 7.4) containing 0.2 mM phenylmethylsulfonyl fluoride, swollen for 5 minutes in reticulocyte standard buffer (RSB; 10 mM NaCl, 10 mM Tris-HCl, pH 7.4, 1.5 mM MgCl2, 0.2 mM phenylmethylsulfonyl fluoride), and lysed by sonication in 3-5 volumes of RBS adjusted to 0.2-0.35 molar (M) NaCl. After 30 minutes on ice, the sonicate was centrifuged at 10,000×g for 15 minutes to remove cellular debris.
Cell extracts obtained above were assayed for EBNA using human sera known to contain anti-EBNA antibodies or exemplary receptor molecules of this invention. The extracts were either concentrated by precipitation with 2 volumes of ethanol at -20 degrees C. for about 18 hours, and were then dissolved in sample buffer [SB; 10% glycerol, 2% 2-mercaptoethanol, 1% sodium dodecyl sulfate (SDS), 0.002% bromphenol blue, 40 mM Tris-HCl (pH 7.4)] or diluted 1:6 in sample buffer for SDS-polyacrylamide gel electrophoresis (SDS-PAGE). 7.5% Polyacrylamide gels were cast and run according to the procedure of Laemmli, Nature, […] (1970), applying 50 to 200 micrograms of total protein per lane. […]
Anti-peptide antibodies bound to EBNA protein were detected by reacting the blots with an indicating means. […]

[4] = Circular dichroism spectroscopy; format: physicochemical; conditions: 1 mg/ml in phosphate buffered saline
Method: The conformational properties of the polypeptides were investigated to elucidate any secondary structure that might be necessary for polypeptide immunoreaction with human anti-EBNA antibodies. The polypeptides were dissolved at a concentration of 1 mg/ml in phosphate-buffered saline (PBS). Spectra were taken using 1 ml samples in a Cary 61 spectropolarimeter (Cary Instruments, Applied Physics Corp., Monrovia, Calif.) interfaced and automated with a Digital Equipment Corporation 11/02 computer (Digital Equipment Corporation, Maynard, Mass.).

**Q.** Which results are given for `C[C@H](NC(=O)CNC(=O)CNC(=O)[C@H](C)NC(=O)CNC(=O)[C@H](C)NC(=O)CNC(=O)CNC(=O)CN)C(=O)NCC(=O)N[C@@H](C)C(=O)NCC(=O)NCC(=O)NCC(=O)NCC(=O)N[C@@H](CCCNC(=N)N)C(=O)O` [Polypeptide P60, H--Gly--Gly--Gly--Ala--Gly--Ala--Gly--Gly--Ala--Gly--Ala--Gly--Gly--Gly--Gly--Arg--OH] (H-GGGAGAGGAGAGGGGR-OH)?
**A.** Reactivity of sera of EBV non-immune donors to polypeptide ([1]; 27 EBV non-immune (VCA-) donors): None of the sera displayed significant reactivity; Number of anti-EBNA positive sera positive against (bound to) polypeptide ([1]; 91 ACIF anti-EBNA positive sera, 1:20 dilution): 91; Titer of PSS patients versus normals ([1]; Progressive Systemic Schlerosis patients): relatively higher average titer; Reaction of VCA+ sera with polypeptide ([1]; clinically normal VCA+ individuals, two dilutions): all of the VCA^+ individuals were positive; Reaction of VCA- sera with polypeptide ([1]; panel of 19 VCA- sera): None of the VCA^- sera were found to react positively; OD405 × 10^3 obtained with Patient Antibodies to peptide ([1]; MV post-mononucleosis): 162 OD405 × 10^3; OD405 × 10^3 obtained with Patient Antibodies to peptide ([1]; MV pre-mononucleosis): 72 OD405 × 10^3; OD405 × 10^3 obtained with Patient Antibodies to peptide ([1]; SB post-mononucleosis): 115 OD405 × 10^3; OD405 × 10^3 obtained with Patient Antibodies to peptide ([1]; SB pre-mononucleosis): 51 OD405 × 10^3; OD405 × 10^3 obtained with Patient Antibodies to peptide ([1]; VCA+ Normal 1): 154 OD405 × 10^3; OD405 × 10^3 obtained with Patient Antibodies to peptide ([1]; VCA+ Normal 2): 145 OD405 × 10^3; OD405 × 10^3 obtained with Patient Antibodies to peptide ([1]; VCA- Normals (n = 27), average ± one standard deviation): 45 ± 18 OD405 × 10^3; Inhibition of binding of anti-polypeptide P62 to polypeptide P62 in the solid phase [2]: 81%; Immunoreactivity of anti-P62 serum with the EBNA band after preincubation with polypeptide ([3]; serum 1:10, 40 ug/ml polypeptide P60, one hour): inhibited; Recognition of EBNA by anti-P60 serum after preincubation with polypeptide ([3]; serum 1:50, 40 ug/ml polypeptide, one hour): inhibited; Conformation by circular dichroism spectrum [4]: very similar spectra
